Melting point data for 40 compounds are collected here from US6444668B1 (Wyeth, priority 1999, dated 2002).

A word on the melting point: it is the temperature of the solid-liquid transition.

Structures are written as SMILES.

`N#Cc1cc(-c2ccc3c(c2)C2(CCCCC2)OC(=O)N3)cs1` [Example 108, 4-(1,2-Dihydro-2-oxospiro[4H-3,1-benzoxazine-4,1-cyclohexan]-6-yl)2-thiophenecarbonitrile] yielded a melting point of 230 to 232 °C. With `N#Cc1cc(F)cc(-c2ccc3c(c2)C2(CCCCC2)OC(=O)N3)c1` [Example 107, 3-(1,2-Dihydro-2-oxospiro[4H-3,1-benzoxazine-4,1-cyclohexan]-6-yl)-5-fluorobenzonitrile], the melting point fell in the range of 250 to 253 °C.

For `CC1OC(=O)Nc2ccc(-c3cccc(Cl)c3)cc21` (stereo not shown) [Example 9, 6-(3-Chloro-phenyl)-4-methyl-1,4-dihydro-benzo[d][1,3]oxazin-2-one], the melting point lay within 155 to 156 °C. Under `CC1(C)OC(=O)Nc2c(F)cc(-c3csc(C#N)c3)cc21` [Example 88, 4-(8-Fluoro-4,4-dimethyl-2-oxo-1,4-dihydro-2H-benzo[d][1,3]oxazin-6-yl)-thiophene-2-carbonitrile] stands 250 to 251 °C; under `CC1(C)OC(=O)Nc2c(F)cc(-c3ccc(F)c(Cl)c3)cc21` [Example 71, 6-(3-Chloro-4-fluoro-phenyl)-8-fluoro-4,4-dimethyl-1,4-dihydrobenzo[d][1,3]-oxazin-2-one], 246 to 248 °C. Under `Cn1cccc1-c1ccc2c(c1)C(C)(C)OC(=O)N2` [Example 98, 4,4-Dimethyl-6-(1-methyl-1H-pyrrol-2-yl)-1,4-dihydro-benzo[d][1,3]oxazin-2-one] stands 230 °C; under `CC1(C)OC(=O)Nc2ccc(-c3cc(C#N)cc(OC(F)(F)F)c3)cc21` [Example 59, 3-(4,4-Dimethyl-2-oxo-1,4-dihydro-2H-benzo[d][1,3]oxazin-6-yl)-5-trifluoromethoxy-benzonitrile], 227 to 228 °C; under `CCc1cc(C#N)sc1-c1ccc2c(c1)C(C)(C)OC(=O)N2` [Example 111, 5(4,4-Dimethyl-2-oxo-1,4-dihydro-2H-benzo[d][1,3]oxazin-6-yl)-4-ethyl-thiophene-2-carbonitrile], 160 to 162 °C. Under `COc1ccc(-c2ccc3c(c2)C(C)(C)OC(=O)N3)cc1F` [Example 138, 6-(3-Fluoro-4-methoxy-phenyl)4,4-dimethyl-1,4-dihydro-benzo[d][1,3]-oxazin-2-one] stands 210 to 211 °C; under `Cn1c(-c2ccc3c(c2)C(C)(C)OC(=O)N3)ccc1[N+](=O)[O-]` [Example 99, 4,4-Dimethyl-6-(1-methyl-5-nitro-1H-pyrrol-2-yl)-1,4-dihydro-benzo [d][1,3]oxazin-2-one], 180 to 185 °C. As to `CC1(C)OC(=O)Nc2c(Br)cc(-c3cc(F)cc(C#N)c3)cc21` [Example 124, 3-(8Bromo-4,4-dimethyl-2-oxo-1,4-dihydro-2H-3,1-benzoxazin-6-yl)-5-fluorobenzonitrile], the melting point fell in the range of 216 to 217 °C. Under `CCCc1cc(C#N)sc1-c1ccc2c(c1)C(C)(C)OC(=O)N2` [Example 112, 5-(4,4-Dimethyl-2-oxo-1,4-dihydro-2H-benzo[d][1,3]oxazin-6-yl)4-n-propyl-thiophene-2-carbonitrile] stands 160 to 162 °C; under `CC1(C)OC(=O)Nc2ccc(-c3cc([N+](=O)[O-])cc([N+](=O)[O-])c3)cc21`, 297 to 298 °C.

`CC1(C)OC(=O)Nc2ccc(-c3coc(C=O)c3)cc21` [Example 144, 4-(4,4-Dimethyl-2-oxo-1,4-dihydro-2H-benzo[d][1,3]oxazin-6-yl)-furan-2-carbaldehyde] had a melting point of 262 to 263 °C. The same measure for `CC1(C)OC(=O)Nc2ccc(-c3ccc[nH]3)cc21` [Example 97, 4,4-Dimethyl-6-(1H-pyrrol-2yl)-1,4-dihydro-benzo[d][1,3]-oxazin-2one]: 202 °C (dec.); for `CC1(C)OC(=O)Nc2ccc(-c3cccc(-c4nnn[nH]4)c3)cc21` [Example 52, 4,4-Dimethyl-6-[3-(1H-tetrazol-5-yl)-phenyl]-1,4dihydrobenzo[d][1,3]oxazin-2-one]: 238 to 240 °C. The same measure for `CC1(C)OC(=O)Nc2ccc(-c3cccc(CC#N)n3)cc21` [Example 132, [6-(4,4-dimethyl-2-oxo-1,4dihydro-2H-3,1-benzoxazin-6-yl)pyridin-2-yl]acetonitrile]: 210 to 212.5 °C; for `CC1(C)OC(=O)Nc2ccc(-c3cc(F)cc(F)c3)cc21` [Example 60, 6-(3,5-difluoro-phenyl)-4,4-dimethyl-1,4-dihydrobenzo-[d][1,3]oxazin-2-one]: 218 to 219 °C; for `COc1cccc(-c2ccc3c(c2)NC(=O)OC3(C)C)c1` [Example 49, 7-(3-Methoxy-phenyl)-4,4-dimethyl-1,4-dihydro-benzo[d][1,3]-oxazin-2-one]: 167 to 168 °C. Under `CC1(C)OC(=O)Nc2ccc(-c3cc(C#N)cs3)cc21` [Example 90, 5-(4,4-Dimethyl-2-oxo-1,4-dihydro-2H-benzo[d][1,3]oxazin-6-yl)thiophene-3-carbonitrile] stands 255 to 260 °C. Compound `CC1(C)OC(=O)Nc2ccc(-c3cc(C(F)(F)F)cc(C(F)(F)F)c3)cc21` [Example 62, 6-(3,5-Bis-trifluoromethyl-phenyl)-4,4-dimethyl-1,4-dihydrobenzo[d][1,3]oxazin-2-one] gave a melting point of 258 to 260 °C. `C#Cc1cccc(-c2ccc3c(c2)C(C)(C)OC(=O)N3)c1` [Example 74, 6-(3-Ethynyl-phenyl)-4,4-dimethyl-1,4dihydro-benzo[d][1,3]-oxazin-2-one] had a melting point of 171 to 172 °C.

Compound `CC1(C)OC(=O)Nc2ccc(-c3cccc(F)c3F)cc21` [Example 130, 6-(2,3-Difluoro-phenyl)-4,4dimethyl-1,4-dihydro-benzo[d][1,3]oxazin-2-one] displayed a melting point of 166 to 167 °C. The same measure for `N#Cc1cccc(-c2ccc3c(c2)C2(CCCCC2)OC(=O)N3)c1` [Example 106, 3-(1,2-Dihydro-2-oxospiro[4H-3,1-benzoxazine-4,1-cyclohexan]-6-yl)-benzonitrile]: 245 to 247 °C; for `CC1(C)OC(=O)Nc2ccc(-c3ccc(Cl)cc3)cc21` [Example 8, 6-(4-Chloro-phenyl)-4,4-dimethyl-1,4-dihydro-benzo[d][1,3]-oxazin-2-one]: 255 to 257 °C.

As for `CCN1C(=O)OC(C)(C)c2cc(-c3cc(F)cc(C#N)c3)ccc21` [Example 131, 3-(1-Ethyl-4,4-dimethyl-2-oxo-1,4-dihydro-2H-benzo[d][1,3]oxazin-6-yl)-5-fluoro-benzonitrile], the melting point fell in the range of 154 to 155 °C. The same measure for `CC(C)(C)OC(=O)N1C(=O)OC(C)(C)c2cc(-c3cc(F)cc(C#N)c3)ccc21` [Example 86, 6-(3-Cyano-5fluoro-phenyl)-4,4-dimethyl-2oxo-4H-benzo[d][1,3]oxazine-1-carboxylic acid tert-butyl ester]: 139 to 140 °C; for `C=CCC1(C)OC(=O)Nc2ccc(-c3cccc(Cl)c3)cc21` (stereo not shown) [Example 36, 4-Allyl-6-(3-chlorophenyl)-4-methyl-1,4-dihydro-benzo[d][1,3]oxazin-2-one]: 128 to 129 °C; for `COc1cc(-c2cc(F)cc(C#N)c2)cc2c1NC(=O)OC2(C)C` [Example 128, 3-(4,4-Dimethyl-8-methoxy-2-oxo-1,4-dihydro-2H-3,1-benzoxazin-6-yl)-5-fluorobenzonitrile]: 252 to 253 °C. The same measure for `CC1(C)OC(=O)Nc2ccc(-c3ccccc3CC#N)cc21` [Example 136, 2-(4,4-Dimethyl 2-oxo-1,4-dihydro-2H-benzo[d][1,3]-oxazin-6-yl)phenylacetonitrile]: 176 to 179 °C; for `COc1cc(F)cc(-c2ccc3c(c2)C(C)(C)OC(=O)N3)c1` [Example 82, 6-(3-Fluoro-5-methoxy-phenyl)-4,4-dimethyl-1,4-dihydro-benzo[d][1,3]oxazin-2-one]: 181 to 182 °C; for `CCC1(CC)NC(=O)Oc2ccc(-c3cccc(Cl)c3)cc21` [Example 25, 6-(3-Chlorophenyl)-4,4-diethyl-1,4-dihydrobenzo[d][3,1]oxazin-2-one]: 150 to 151 °C. The same measure for `CC1(C)OC(=O)Nc2ccc(-c3cc(Br)cc(OC(F)(F)F)c3)cc21` [Example 57, 6-(3-Bromo-5-trifluoromethoxy-Phenyl)-4,4-dimethyl-1,4-dihydrobenzo[d][1,3]-oxazin-2-one]: 214 to 216 °C. `CC1(C)OC(=O)Nc2ccc(-c3ccccc3Cl)cc21` [Example 7, 6-(2-Chloro-phenyl)-4,4-dimethyl-1,4-dihydro-benzo[d][1,3]oxazin-2-one] yielded a melting point of 181 to 182 °C. Under `CC1(C)OC(=O)Nc2ccc(-c3cccc(-c4nccs4)c3)cc21` [Example 81, 4,4-Dimethyl-6(3-thiazol-2-yl-phenyl)-1,4-dihydro-benzo[d][1,3]oxazin-2-one] stands 223 to 224 °C; under `CC1(C)OC(=O)Nc2ccc(-c3cccc(C(=O)c4ccccc4)c3)cc21` [Example 51, 6-(3-Benzoyl-phenyl)-4,4-dimethyl-1,4dihydro-benzo[d][1,3]-oxazin-2-one], 156 to 157 °C. Under `CCC1OC(=O)Nc2ccc(-c3cccc(Cl)c3)cc21` (stereo not shown) [Example 10, 6-(3-Chloro-phenyl)-4-ethyl-1,4-dihydro-benzo[d][1,3]oxazin-2-one] stands 146 to 148 °C; under `CC1(C)OC(=O)Nc2ccc(-c3ccc(CC#N)c(F)c3)cc21` [Example 135, 4-(4,4Dimethyl-2-oxo-1,4-dihydro-2H-benzo[d][1,3]oxazin-6yl)-2-fluorophenylacetonitrile], 253 to 256 °C; under `CC#CC1(C#CC)OC(=O)Nc2ccc(-c3cccc(Cl)c3)cc21` [Example 44, 6(3-Chloro-phenyl)-4,4dipropyn-1-yl-1,4dihydrobenzo[d][1,3]oxazin-2-one], 151 °C (dec.).

`COc1cccc(-c2ccc3c(c2)C2(CCC2)OC(=O)N3)c1` [Example 122, 6-(3-Methoxyphenyl)spiro[4H-3,1-benzoxazine-4,1-cyclobutan]-2(1H)-one] came in with a melting point of 145 to 146 °C.
